Source: patent publication EP3046573B1, “AMYLIN ANALOGUES” (Zealand Pharma A/S, priority 2013, dated 2015)
Where two headings read alike, the source gives them in different places. Numbered stars: 1 amine (or outer) side, 2 acyl side, 3 side chain; on linkers, the order of the positions; unused ones are H or OH. Bridge positions count the residues as written; N and C are the ends. Square brackets hold non-standard residues; d marks the D form. Peptide text beside a SMILES is read from it. * marks the point of attachment. C20 diacid = O=C(O)CCCCCCCCCCCCCCCCCCC(=O)*; γGlu = O=C(O)[C@H](CCC(=O)[*:2])N[*:1]; NMeI = CC[C@H](C)[C@H](NC)C(=O)O; Aze = O=C(O)[C@@H]1CCN1; Sar = CNCC(=O)O

Columns and labels:
[1] = molecular target: T1, human amylin receptor 3 (hAMYR3) consisting of hCTR2 co-expressed with human Receptor Activity Modifying Protein 3 (hRAMP3) (Homo sapiens, UniProt O60896+P30988); test: hAMYR3 assay: induction of cAMP (AlphaScreen cAMP Assay kit) in COS7 cells expressing hAMYR3; format: cell-based
T1 construct: expressed in transfected cells
T1 sequence (P30988 25-474): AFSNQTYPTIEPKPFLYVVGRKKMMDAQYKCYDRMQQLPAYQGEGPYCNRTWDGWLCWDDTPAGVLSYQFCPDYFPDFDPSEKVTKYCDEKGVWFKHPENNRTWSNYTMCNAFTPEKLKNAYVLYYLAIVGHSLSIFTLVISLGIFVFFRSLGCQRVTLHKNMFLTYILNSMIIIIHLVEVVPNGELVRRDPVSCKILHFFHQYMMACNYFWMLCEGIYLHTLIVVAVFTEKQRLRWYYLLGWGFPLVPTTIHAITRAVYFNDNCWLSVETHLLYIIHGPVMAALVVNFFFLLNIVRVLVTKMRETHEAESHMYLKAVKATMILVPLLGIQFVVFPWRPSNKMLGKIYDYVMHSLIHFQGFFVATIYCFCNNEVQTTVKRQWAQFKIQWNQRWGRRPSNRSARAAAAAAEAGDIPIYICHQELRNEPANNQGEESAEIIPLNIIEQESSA
T1 sequence (O60896 24-148 partner): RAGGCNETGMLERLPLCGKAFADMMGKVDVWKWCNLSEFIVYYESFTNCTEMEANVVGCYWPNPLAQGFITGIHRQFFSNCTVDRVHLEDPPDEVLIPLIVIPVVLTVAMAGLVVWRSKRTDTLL
Method in brief: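 Stable COS7 clone co-expressing hCTR2 and hRAMP3, stimulated 15 min at 37° C with increasing peptide in Tyrode buffer pH 7.4 with 100 µM IBMX and 0.1% casein. cAMP measured by AlphaScreen after lysis; EC50 and % efficacy versus pramlintide from 4PL fit.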

[2] = Assessment of physical stability: fibril formation detected with Thioflavin T (ThT), lag-time; format: physicochemical; details: 1 mg/ml peptide, 40 µM ThT, FND = Fibrillation not detected; for Fibrillation lag time (hours) pH 4.0 (Ac): 50 mM acetate buffer pH 4.0, 96 hours at 40°C; for Fibrillation lag time (hours) pH 7.0 (His): 50 mM histidine buffer pH 7.0, 96 hours at 40°C; for Fibrillation lag time (hours) pH 7.0 (Ph): 50 mM phosphate buffer pH 7.0, 96 hours at 40°C
Method in brief: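 Test peptide at 1 mg/ml with 40 µM ThT in 50 mM phosphate (pH 7.0), 50 mM histidine (pH 7.0) or 50 mM acetate (pH 4.0), in triplicate, 40° C. for 96 h. Fluorescence read every 10 min after 300 s agitation. Lag-time (h) taken as intersection of linear fits to initial stable and growth phases.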

[3] = cAMP induction in COS7 cells expressing hAMYR3, average of a minimum of 3 determinations, read-out: hAMY R3 EC50

Row | EC50 [1, 3] | SMILES | Fibrillation lag time (hours) pH 4.0 (Ac) [2] | Fibrillation lag time (hours) pH 7.0 (His) [2] | Fibrillation lag time (hours) pH 7.0 (Ph) [2] | EC50 [1]
1 | 0.12 nM | CC[C@H](C)[C@@H](C(=O)N[C@@H](CC(C)C)C(=O)N[C@@H](CO)C(=O)N[C@@H](CO)C(=O)N[C@H](C(=O)N[C@@H](CCC(=O)O)C(=O)N[C@H](C(=O)NCC(=O)N[C@@H](CO)C(=O)N[C@@H](CCC(=O)O)C(=O)N[C@H](C(=O)N1CCC[C@H]1C(N)=O)[C@@H](C)O)C(C)C)[C@@H](C)O)N(C)C(=O)[C@H](C)NC(=O)CN(C)C(=O)[C@H](Cc1ccccc1)NC(=O)[C@H](CO)NC(=O)[C@H](CO)NC(=O)[C@H](CCCNC(=N)N)NC(=O)[C@H](Cc1c[nH]cn1)NC(=O)[C@H](CC(C)C)NC(=O)[C@H](Cc1ccccc1)NC(=O)[C@H](CCC(=O)O)NC(=O)[C@H](C)NC(=O)[C@H](CC(C)C)NC(=O)[C@H](CCCNC(=N)N)NC(=O)[C@H](CCC(N)=O)NC(=O)[C@@H](NC(=O)[C@H](C)NC(=O)[C@@H]1CSSC[C@H](NC(=O)[C@H](CCCNC(=N)N)NC(=O)CC[C@H](NC(=O)CCCCCCCCCCCCCCCCCCC(=O)O)C(=O)O)C(=O)N[C@@H](CC(N)=O)C(=O)N[C@@H]([C@@H](C)O)C(=O)N[C@@H](C)C(=O)N[C@@H]([C@@H](C)O)C(=O)N1)[C@@H](C)O [Compound 82, [19CD]-isoGlu-RC()NTATC()ATQRLAEFLHRSSF-Gly(Me)-A-Ile(Me)-LSSTEVGSETP-NH2] ({C20 diacid-γGlu}-RCNTATCATQRLAEFLHRSSF[Sar]A[NMeI]LSSTEVGSETP-NH2; disulfide 2-7) | FND | FND | FND | –
2 | – | CC[C@H](C)[C@@H](C(=O)N[C@@H](CC(C)C)C(=O)N[C@@H](CO)C(=O)N[C@@H](CO)C(=O)N[C@H](C(=O)N[C@@H](CC(N)=O)C(=O)N[C@H](C(=O)NCC(=O)N[C@@H](CO)C(=O)N[C@@H](CC(N)=O)C(=O)N[C@H](C(=O)N1CC[C@H]1C(N)=O)[C@@H](C)O)C(C)C)[C@@H](C)O)N(C)C(=O)[C@H](C)NC(=O)CN(C)C(=O)[C@H](Cc1ccccc1)NC(=O)[C@H](CC(N)=O)NC(=O)[C@H](CC(N)=O)NC(=O)[C@H](CO)NC(=O)[C@H](CO)NC(=O)[C@H](CCCNC(=N)N)NC(=O)[C@H](Cc1c[nH]cn1)NC(=O)[C@H](CC(C)C)NC(=O)[C@H](Cc1ccccc1)NC(=O)[C@H](CCC(=O)O)NC(=O)[C@H](C)NC(=O)[C@H](CC(C)C)NC(=O)[C@H](CCCNC(=N)N)NC(=O)[C@H](CCC(N)=O)NC(=O)[C@@H](NC(=O)[C@H](C)NC(=O)[C@@H]1CSSC[C@H](NC(=O)[C@H](CCCNC(=N)N)NC(=O)CC[C@H](NC(=O)CCCCCCCCCCCCCCCCCCC(=O)O)C(=O)O)C(=O)N[C@@H](CC(N)=O)C(=O)N[C@@H]([C@@H](C)O)C(=O)N[C@@H](C)C(=O)N[C@@H]([C@@H](C)O)C(=O)N1)[C@@H](C)O [Compound 107, [19CD]-isoGlu-RC()NTATC()ATQRLAEFLHRSSNNF-Gly(Me)-A-Ile(Me)-LSSTNVGSNT-Aze-NH2] ({C20 diacid-γGlu}-RCNTATCATQRLAEFLHRSSNNF[Sar]A[NMeI]LSSTNVGSNT[Aze]-NH2; disulfide 2-7) | FND | FND | 16 hours | 0.52 nM
3 | 0.12 nM | CC[C@H](C)[C@@H](C(=O)N[C@@H](CC(C)C)C(=O)N[C@@H](CO)C(=O)N[C@@H](CO)C(=O)N[C@H](C(=O)N[C@@H](CCC(=O)O)C(=O)N[C@H](C(=O)NCC(=O)N[C@@H](CO)C(=O)N[C@@H](CCC(=O)O)C(=O)N[C@H](C(=O)N1CCC[C@H]1C(N)=O)[C@@H](C)O)C(C)C)[C@@H](C)O)N(C)C(=O)[C@H](C)NC(=O)CN(C)C(=O)[C@H](Cc1ccccc1)NC(=O)[C@H](CO)NC(=O)[C@H](CO)NC(=O)[C@H](CO)NC(=O)[C@H](CO)NC(=O)[C@H](CCCNC(=N)N)NC(=O)[C@H](Cc1c[nH]cn1)NC(=O)[C@H](CC(C)C)NC(=O)[C@H](Cc1ccccc1)NC(=O)[C@H](CCC(=O)O)NC(=O)[C@H](C)NC(=O)[C@H](CC(C)C)NC(=O)[C@H](CCCNC(=N)N)NC(=O)[C@H](C)NC(=O)[C@@H](NC(=O)[C@H](C)NC(=O)[C@@H]1CSSC[C@H](NC(=O)[C@H](CCCNC(=N)N)NC(=O)CC[C@H](NC(=O)CCCCCCCCCCCCCCCCCCC(=O)O)C(=O)O)C(=O)N[C@@H](CC(N)=O)C(=O)N[C@@H]([C@@H](C)O)C(=O)N[C@@H](C)C(=O)N[C@@H]([C@@H](C)O)C(=O)N1)[C@@H](C)O [Compound 118, [19CD]-isoGlu-RC()NTATC()ATARLAEFLHRSSSSF-Gly(Me)-A-Ile(Me)-LSSTEVGSETP-NH2] ({C20 diacid-γGlu}-RCNTATCATARLAEFLHRSSSSF[Sar]A[NMeI]LSSTEVGSETP-NH2; disulfide 2-7) | FND | FND | FND | –
4 | – | CC[C@H](C)[C@@H](C(=O)N[C@@H](CC(C)C)C(=O)N[C@@H](CO)C(=O)N[C@@H](CO)C(=O)N[C@H](C(=O)N[C@@H](CCC(=O)O)C(=O)N[C@H](C(=O)NCC(=O)N[C@@H](CO)C(=O)N[C@@H](CCC(=O)O)C(=O)N[C@H](C(=O)N1CCC[C@H]1C(N)=O)[C@@H](C)O)C(C)C)[C@@H](C)O)N(C)C(=O)[C@H](C)NC(=O)CN(C)C(=O)[C@H](Cc1ccccc1)NC(=O)[C@H](CO)NC(=O)[C@H](CO)NC(=O)[C@H](CO)NC(=O)[C@H](CO)NC(=O)[C@H](CCCNC(=N)N)NC(=O)[C@H](Cc1c[nH]cn1)NC(=O)[C@H](CC(C)C)NC(=O)[C@H](Cc1ccccc1)NC(=O)[C@H](CCC(=O)O)NC(=O)[C@H](C)NC(=O)[C@H](CC(C)C)NC(=O)[C@H](CCCNC(=N)N)NC(=O)[C@H](CC(=O)O)NC(=O)[C@@H](NC(=O)[C@H](C)NC(=O)[C@@H]1CSSC[C@H](NC(=O)[C@H](CCCNC(=N)N)NC(=O)CC[C@H](NC(=O)CCCCCCCCCCCCCCCCCCC(=O)O)C(=O)O)C(=O)N[C@@H](CC(N)=O)C(=O)N[C@@H]([C@@H](C)O)C(=O)N[C@@H](C)C(=O)N[C@@H]([C@@H](C)O)C(=O)N1)[C@@H](C)O [Compound 120, [19CD]-isoGlu-RC()NTATC()ATDRLAEFLHRSSSSF-Gly(Me)-A-Ile(Me)-LSSTEVGSETP-NH2] ({C20 diacid-γGlu}-RCNTATCATDRLAEFLHRSSSSF[Sar]A[NMeI]LSSTEVGSETP-NH2; disulfide 2-7) | FND | FND | FND | 0.15 nM
